The results in this text go back to patent US20220265655A1, “METHODS OF TREATING INFLAMMATORY DISEASES” (Ribon Therapeutics, Inc., priority 2021, published 2022).

The test system of data set [1] is Alternaria sensitized mice challenged with Alternaria. Conditions: Compound 2 500 mg/kg b.i.d., Compound 1 500 mg/kg with 1-ABT 25 mg/kg b.i.d.
The test system of data set [2] is DNCB-induced atopic dermatitis model. Nature of the data set: DNCB-induced atopic dermatitis model (Example D).
In data set [3] the test system is IMQ-induced psoriasis model. The experiment in a line: Imiquimod (IMQ)-induced psoriasis model (Example E).
The test system of data set [4] is BLM-induced pulmonary fibrosis model. As to the method: BLM-induced pulmonary fibrosis is an established disease model for IPF. In the model, alveolar injury and interstitial inflammation/fibrosis are induced by intracheal BLM administration.
Formulations (50 μL/vial) were kept for dose verification on the first and last dosing day (2 vials each, total 4 vials).
At Day 0, 40 mice were induced to develop pulmonary fibrosis by a single intratracheal administration of bleomycin hydrochloride (BLM, Nippon Kayaku, Japan) in PBS at a dose of 3.0 mg/kg, in a volume of 50 μL per animal using Microsprayer® (Penn-Century, USA) under a mixture of medetomidine (0.75 mg/kg), midazolam (4 mg/kg) and butorphanol (5 mg/kg) anesthesia by intraperitoneal administration in a volume of 10 mL/kg. […] Five mice were intratracheally administered PBS, instead of the BLM, which served as the Sham group.
Tofacitinib was administered orally at a dose of 50 mg/kg in a volume of 10 mL/kg twice daily (total of 100 mg/kg/day).
The viability, clinical signs and behavior were monitored daily. Body weight was recorded daily from Day 0. Dosing volume was adjusted based on the latest body weight. […] The animals were sacrificed on Day 14 by exsanguination through the abdominal vena cava under a mixture of medetomidine, midazolam and butorphanol anesthesia. The time of the dosing and termination was recorded. The left and post-caval lobe weight for all mice were recorded.
For Group 2-4, BALF samples were collected by flushing the lung via the trachea with sterile PBS three times (1st BALF, 2nd BALF and 3rd BALF, 0.8 mL each) at sacrifice under a mixture of medetomidine, midazolam and butorphanol anesthesia. The 1st BALF was centrifuged at 3,000×g for 5 min at 4° C. and the supernatant was collected and stored at −80° C. The cell pellet from the first fraction (1st BALF) was resuspended and added to the remaining fractions of lavage fluid (2nd and 3rd BALF). The total BALF was centrifuged at 1,000×g for 5 min at 4° C. and the supernatant was removed. Ammonium-Chloride-Potassium (ACK) lysing buffer was added to the pellet and washed for lysis of erythrocytes. After addition of cold PBS, the fluid was centrifuged at 1,000×g for 3 min at 4° C. and the supernatant was removed. Resuspended in PBS and total cell number of BALF was counted using a hemocytometer (C-Chip disposable hemocytometer, Digital Bio). After counting the total cells, the cell suspension was re-suspended in PBS to 5×10^5 cells/mL. A smear sample was then prepared by spotting 100 μL of cell suspension onto slides, and air-dried using a dryer on cool setting.
Indwelling needle was inserted into trachea and connected to instillation route of syringe. The syringe was loaded with 10% neutral buffered formalin and kept at the height of 20 cm. […] The three unfixed lobes were washed with cold saline and measured wet weight.
To quantify lung hydroxyproline content, frozen left lung samples were processed by an acid hydrolysis method as follows. […] AC buffer (2.2M acetic acid/0.48M citric acid, 200 μL) was added to the samples, followed by centrifugation to collect the supernatant. […] The samples were then mixed with Ehrlich's solution (300 μL) and heated at 65° C. for 20 minutes to develop the color. After samples were cooled on ice and centrifuged to remove precipitates, the optical density of each supernatant was measured at 560 nm. The concentrations of hydroxyproline were calculated from the hydroxyproline standard curve. Lung hydroxyproline levels were expressed as […] per left lung.
For Group 2-4, BALF IL-4, IL-6, IL-10 and IL-17 levels were quantified by Quantikine enzyme linked immunosorbent assay kits (code. M4000B for IL-4, code. M6000B for IL-6, code. M1000B for IL-10, code. M1700 for IL-17, R&D systems) according to manufacturer instructions.
For Masson's Trichrome staining, the sections were deparaffinized and rehydrated, followed by re-fixation with Bouin's solution for 15 min.

The test system of data set [5] is OXZ-induced colitis mouse model. Conditions: Compound 1 1,000 mg/kg PO BID; tofacitinib 10 mg/kg PO BID.
Setting [6] is: ratio (percentage) of BALF cells, mean ± SD.

With `O=c1[nH]c(CS[C@H]2CC[C@H](O)CC2)nc2cc(OCC3CC3)cc(F)c12` [Compound 2, 7-(Cyclopropylmethoxy)-5-fluoro-2-(((trans-4-hydroxycyclohexyl)thio)methyl)quinazolin-4(3H)-one], in data set [1], the “IgE blood serum levels” value is reported as “reduced”; the “levels of IL4, IL-5, IL-13, and IL-33 in BAL fluid” value is reported as “reduced”; the “levels of IL4, IL-5, IL-13, and IL-33 in lung tissue” value was “reduced”; the “levels of eosinophils in BAL fluid” value is reported as “reduced”. Also, the “levels of neutrophils in BAL fluid” value in data set [1] is “reduced”. The “airway mucus in lung tissue” value in data set [1] (days 19-25) is “reduced”.

In the case of `C[C@@H]1C[C@H]2[C@@H]3CCC4=CC(=O)C=C[C@]4(C)[C@@]3(F)[C@@H](O)C[C@]2(C)[C@@]1(O)C(=O)CO` [DEX, Dexamethasone], the “inhibition rate of clinical scoring (AUC of total clinical score) compared to vehicle” value in data set [2] (Compound 1 500 mg/kg PO BID, DEX ointment 70 mg topical QD, P<0.0001) came to 43.5%. In data set [2] (Compound 1: peak on Day 17, DEX: high clinical scores, vehicle peak 11.9 on Day 17), the “total clinical score, peak / high values” is listed as 6-7. Moreover, the bodyweight entry in data set [2] (monitored daily, Compound 1 500 mg/kg PO BID, DEX ointment topical QD) is given as “caused decreases in bodyweight”; in data set [3] (monitored daily, consecutive IMQ treatment and dosing) it was “caused decreases in bodyweight”. Besides, the “inhibition rate of clinical scoring (AUC of total clinical score)” value in data set [3] (Compound 1 500 mg/kg PO BID (P<0.001), DEX ointment 70 mg topical QD (P<0.0001)) was 87.7%.

For `C[C@@H]1CCN(C(=O)CC#N)C[C@@H]1N(C)c1ncnc2[nH]ccc12` [Tofacitinib free base, Tofacitinib], the “mean body weight changes (% of Day 0) compared with Vehicle group” value in data set [4] (Compound 1 500 mg/kg PO BID, Tofacitinib free base 50 mg/kg PO BID, Day 1-14) is reported as “significantly higher than that of the Vehicle group from Day 6 to Day 14”. Further, in data set [4] (Day 14, mean ± SD), the “Left lung weight” value was 101 ± 9 mg, the Post-caval lobe weight came out at 27 ± 4 and the “Right inferior lobe weight” value is 84 ± 14. In addition, the Ashcroft score in data set [4] (Masson's trichrome-stained lung sections, mean ± SD) is on record as 2.2 ± 1.2. The “mice found dead during the treatment period” value in data set [4] (before reaching Day 14) is “no dead animals”. Besides, the “bodyweight” value in data set [4] (day of sacrifice (Day 14), mean ± SD) stood at 18.1 ± 1.7 g. For the same compound, in data set [4] (mean ± SD), the “BALF IL-6” value came to 4.4 ± 5.5 pg/mL, the “Lung hydroxyproline (μg/left lung)” value was determined as 49.3 ± 8.3 μg/left lung and the “Total cells (×10^4) in BALF” value is given as 83.8 ± 50.0 ×10^4. In addition, in data set [4] (mean ± SD, Compound 1 (n = 6), Tofacitinib free base (n = 1)), the “BALF IL-10” value was determined as 2.9 pg/mL. In data set [4] (mouse, in vivo), the “mean body weight on the day of sacrifice compared with the Vehicle group” value was “increasing trend”, the “mean right inferior lobe weight compared with the Vehicle group” value was “significant decreases” and the “total number of cells in BALF compared with the Vehicle group” value is “no significant difference”. The “Eosinophil in BALF” value in data set [4] (ratio (percentage) of BALF cells) is 0.0. For the same compound, in data set [4] (setting [6]), the “Lymphocyte in BALF” value is listed as 11.7 ± 14.5, the “Monocyte in BALF” value stood at 88.0 ± 15.2 and the “Neutrophil in BALF” value was found to be 0.3 ± 0.9. In data set [5], the “AUC of body weight change, difference to vehicle group” value was “a statistical difference was not seen”; the “AUC of the DAI score in comparison to vehicle” value is listed as “suppressed”; the “DAI score in comparison to vehicle treated mice” value is reported as “suppressed”; the “body weight loss compared with vehicle group” value is “suppressed”. In data set [5], the “colon density (increase induced by OXZ)” value was “also suppressed”, the “colon histology (H&E staining) compared to the vehicle group” value is “appeared similar to the sham group”, the “colon length (reduction induced by OXZ)” value is reported as “also suppressed” and the “colon weight (increase induced by OXZ)” value is given as “also suppressed”. Moreover, the “pathological score of colitis severity in comparison to the vehicle control group” value in data set [5] is “increased integrity of the crypt structure, less inflammatory cell infiltration, reduced muscle thickening and less crypt abscess”.
